According to patent US20130005676A1 (UNIVERSITY OF ROCHESTER, priority 2009, published 2013):
Entries after “also recorded” stand apart in the source; their conditions may differ.

Experiments:
adenosine kinase [1] = molecular target: T1, adenosine kinase (Homo sapiens, UniProt P55263); conditions: cited from earlier work
[2] = tested on: enzymes involved in extracellular degradation of AMP; experiment: Phosphate production (Malachite Green) in tissue sections from the Zusanli point; type: biochemical, mice; conditions: for rate of phosphate generation: 1 mM added as substrate, n=3; for dephosphorylation of AMP (phosphate production): inhibitor 500 μM, tissue in 1 mM AMP for 45 min
Rat Parotid Ecto-ATPase = conditions: cited from earlier work
Ecto-ATPase [3] = conditions: Crack et al.; cited from earlier work
Ecto-ATPase [4] = conditions: cited from earlier work
P2 receptors = conditions: cited from earlier work
[5] = tested on: mice with inflammatory pain (CFA); experiment: Inflammatory pain (CFA in paw): mechanical allodynia (Von Frey) and thermal hyperalgesia; type: in vivo
Description: Peripheral inflammation was induced by injection of Complete Freud Adjuvant (CFA, mixed with an equal amount of oil, […], Jackson labs) (Raghavendra et al., “Complete Freunds Adjuvant-Induced Peripheral Inflammation Evokes Glial Activation and Proinflammatory Cytokine Expression in the CNS,” Eur. J. Neurosci. 20:467-473 (2004), which is hereby incorporated by reference in its entirety). […] Neuropathic pain was induced by ligation of the sciatic nerve with 4.0 polypropylene suture in mice sedated with ketamine (60 mg/kg, i.p.) and xylazine (10 mg/kg, i.p.) (Bennett et al., “A Peripheral Mononeuropathy in Rat that Produces Disorders of Pain Sensation Like Those Seen in Man,” Pain 33:87-107 (1988); Martucci et al., “The Purinergic Antagonist PPADS Reduces Pain Related Behaviours and Interleukin-1 beta, Interleukin-6, iNOS and nNOS Overproduction in Central and Peripheral Nervous System After Peripheral Neuropathy in Mice,” Pain 137:81-95 (2008), which are hereby incorporated by reference in their entirety).
Mechanical allodynia was evaluated using repeated stimulations with a Von Frey filament exerting 0.02 grams of force onto the plantar surface (Colburn et al., “The Effect of Site and Type of Nerve Injury on Spinal Glial Activation and Neuropathic Pain Behavior,” Exp. Neurol. 157:289-304. (1999), which is hereby incorporated by reference in its entirety). The percentage of negative responses of a total of 10 trials was calculated for each foot. Thermal hyperalgesia was assessed using an Analgesymeter (Ugo Basile, Comerio, Italy) (Stein et al., “Intrinsic Mechanisms of Antinociception in Inflammation: Local Opioid Receptors and Beta-Endorphin,” J. Neurosci. 10:1292-1298 (1990), which is hereby incorporated by reference in its entirety). In short, a mobile radiant heat source was focused on the hind paw, and the paw withdrawal latencies were defined as the time taken by the mouse to remove its hind paw from the heat source (max 20 sec to avoid tissue damage). The paw withdrawal was repeated three times for each foot and the average calculated. To avoid conditioning to stimulation a 5 min rest period was interposed between each trial in both thermal and mechanical tests. Behavioral parameters were evaluated prior to intraplantar injection of CFA or nerve ligation (i.e. day 0), and again on day 3-4 in mice receiving the CFA injection, and at day 5-7 in mice with nerve ligation unless otherwise noted. Prior to injection of CCPA, saline, or acupuncture in the Zusanli point, the mice were placed in a restraining under light isoflurane anesthesia (˜1%). The total duration of anesthesia was ˜2 min and mice with inflammatory, neurogenic pain, and their controls were treated similarly. 2-chloro-N6-cyclopentyl-adenosine (CCPA, 0.1 mM, 20 μl) was injected in the Zusanli point ˜5 min before acupuncture. […] The needle was slowly rotated ˜2 time (˜20-30 sec) every 5 min for a total of 30 min during an acupuncture session. A microdialysis probe (MD-2211, Bioanalytical systems, West Lafayette, Ind.) was implanted 1-3 hrs prior to collection of microdialysis samples. The microdialysis probe was implanted in a distance of 0.4-0.6 mm from the Zusanli point. The microdialysis probe was perfused with Ringer's solution at a rate of 1 μl per minute. The microdialysates were collected on ice and the perfusate collected over a 30 min period (30 μl) was immediately frozen at −80° C. until HPLC analysis. Deoxycoformycin was administered in a dose of 50 mg/kg i.p. 30 min prior to acupuncture.

[6] = tested on: mice with neuropathic pain; experiment: Neuropathic pain (sciatic nerve ligation): mechanical allodynia and thermal hyperalgesia; type: in vivo
Protocol: Peripheral inflammation was induced by injection of Complete Freud Adjuvant (CFA, mixed with an equal amount of oil, total volume 0.1 ml) in the plantar surface of the left hind paw of mice (25-30 g, Jackson labs) (Raghavendra et al., “Complete Freunds Adjuvant-Induced Peripheral Inflammation Evokes Glial Activation and Proinflammatory Cytokine Expression in the CNS,” Eur. J. Neurosci. 20:467-473 (2004), which is hereby incorporated by reference in its entirety). An equal amount of saline (0.1 ml) was injected in the right hind paw as control. Neuropathic pain was induced by ligation of the sciatic nerve with 4.0 polypropylene suture in mice sedated with ketamine (60 mg/kg, i.p.) and xylazine (10 mg/kg, i.p.) (Bennett et al., “A Peripheral Mononeuropathy in Rat that Produces Disorders of Pain Sensation Like Those Seen in Man,” Pain 33:87-107 (1988); Martucci et al., “The Purinergic Antagonist PPADS Reduces Pain Related Behaviours and Interleukin-1 beta, Interleukin-6, iNOS and nNOS Overproduction in Central and Peripheral Nervous System After Peripheral Neuropathy in Mice,” Pain 137:81-95 (2008), which are hereby incorporated by reference in their entirety).
Mechanical allodynia was evaluated using repeated stimulations with a Von Frey filament exerting 0.02 grams of force onto the plantar surface (Colburn et al., “The Effect of Site and Type of Nerve Injury on Spinal Glial Activation and Neuropathic Pain Behavior,” Exp. Neurol. 157:289-304. (1999), which is hereby incorporated by reference in its entirety). The percentage of negative responses of a total of 10 trials was calculated for each foot. Thermal hyperalgesia was assessed using an Analgesymeter (Ugo Basile, Comerio, Italy) (Stein et al., “Intrinsic Mechanisms of Antinociception in Inflammation: Local Opioid Receptors and Beta-Endorphin,” J. Neurosci. 10:1292-1298 (1990), which is hereby incorporated by reference in its entirety). In short, a mobile radiant heat source was focused on the hind paw, and the paw withdrawal latencies were defined as the time taken by the mouse to remove its hind paw from the heat source (max 20 sec to avoid tissue damage). The paw withdrawal was repeated three times for each foot and the average calculated. To avoid conditioning to stimulation a 5 min rest period was interposed between each trial in both thermal and mechanical tests. Behavioral parameters were evaluated prior to intraplantar injection of CFA or nerve ligation (i.e. day 0), and again on day 3-4 in mice receiving the CFA injection, and at day 5-7 in mice with nerve ligation unless otherwise noted. Prior to injection of CCPA, saline, or acupuncture in the Zusanli point, the mice were placed in a restraining under light isoflurane anesthesia (˜1%). […]

[7] = tested on: mice with inflammatory or neuropathic pain; experiment: Statements covering both inflammatory and neuropathic pain models; type: in vivo; conditions: both pain models
Protocol: Peripheral inflammation was induced by injection of Complete Freud Adjuvant (CFA, mixed with an equal amount of oil, total volume 0.1 ml) in the plantar surface of the left hind paw of mice (25-30 g, Jackson labs) (Raghavendra et al., “Complete Freunds Adjuvant-Induced Peripheral Inflammation Evokes Glial Activation and Proinflammatory Cytokine Expression in the CNS,” Eur. J. Neurosci. 20:467-473 (2004), which is hereby incorporated by reference in its entirety). An equal amount of saline (0.1 ml) was injected in the right hind paw as control. […]
Mechanical allodynia was evaluated using repeated stimulations with a Von Frey filament exerting 0.02 grams of force onto the plantar surface (Colburn et al., “The Effect of Site and Type of Nerve Injury on Spinal Glial Activation and Neuropathic Pain Behavior,” Exp. Neurol. 157:289-304. (1999), which is hereby incorporated by reference in its entirety). The percentage of negative responses of a total of 10 trials was calculated for each foot. Thermal hyperalgesia was assessed using an Analgesymeter (Ugo Basile, Comerio, Italy) (Stein et al., “Intrinsic Mechanisms of Antinociception in Inflammation: Local Opioid Receptors and Beta-Endorphin,” J. Neurosci. 10:1292-1298 (1990), which is hereby incorporated by reference in its entirety). […] The paw withdrawal was repeated three times for each foot and the average calculated. […] Behavioral parameters were evaluated prior to intraplantar injection of CFA or nerve ligation (i.e. day 0), and again on day 3-4 in mice receiving the CFA injection, and at day 5-7 in mice with nerve ligation unless otherwise noted. […]

[8] = tested on: fEPSP in anterior cingulate cortex; experiment: In vivo electrophysiology: fEPSP in left anterior cingulate cortex evoked by painful foot shock; design: species or system mice
Protocol: Mice were anaesthetized with 2-3% isoflurane, intubated, and artificially ventilated with a small animal ventilator (SAAR-830, CWE). Body temperature was monitored by a rectal probe and maintained at 37° C. by a heating blanket (BS4, Harvard Apparatus). A craniotomy (1-1.5 mm in diameter), centered 0.1 mm anterior to the bregma and 1.5 mm lateral from midline, was made over the left anterior cingulated cortex. A custom-made metal plate was glued to the skull with dental acrylic cement. The mice were for the remaining part of the experiment maintained at 2% isoflurane. LFP recordings were obtained from layer 4 of anterior cingulate cortex (ACC), 0.8 mm below the pial surface by a patch pipette (TW100E-4, WPI; outer diameter, 1.0 mm; inner diameter, 0.75 mm; tip diameter, 1-2 μm). […] Dura matter was kept intact. A custom-made bipolar electrode was inserted subcutaneously into the right hindpaw. High intensity stimulation (10 mA, 20 ms) were evoked every 120 sec. Lower stimulation intensities evoked either no or variable responses consistent with the idea that that ACC neurons respond primarily to painful stimuli Wei et al., “Potentiation of Sensory Responses in the Anterior Cingulate Cortex Following Digit Amputation in the Anaesthetised Rat,” J. Physiol. 532:823-833 (2001), which is hereby incorporated by reference in its entirety). The amplitude of the field EPSPs was measured using the pCLAMP 9.2 program (Axon Instruments, Inc., Foster City, Calif., USA).

adenosine transport = adenosine transport inhibitors; unit inferred; cited from earlier work
adenosine kinase [9] = molecular target: T1, adenosine kinase; conditions: adenosine as substrate; cited from earlier work

T1 sequence (P55263 whole entry, species assumed): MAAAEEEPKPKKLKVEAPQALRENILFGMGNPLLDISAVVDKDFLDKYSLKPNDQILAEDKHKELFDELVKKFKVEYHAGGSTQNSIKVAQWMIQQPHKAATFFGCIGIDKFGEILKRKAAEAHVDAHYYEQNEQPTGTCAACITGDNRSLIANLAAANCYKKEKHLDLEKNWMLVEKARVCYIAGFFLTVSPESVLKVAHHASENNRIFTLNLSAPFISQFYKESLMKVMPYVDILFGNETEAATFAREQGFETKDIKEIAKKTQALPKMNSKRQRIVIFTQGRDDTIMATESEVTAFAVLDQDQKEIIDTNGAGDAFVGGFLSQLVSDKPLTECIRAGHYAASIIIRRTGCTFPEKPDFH

## Nc1ncnc2c1c(Br)cn2[C@@H]1C[C@H](N)[C@@H](O)[C@H]1O [A-286501, N7-((1′R,2′S,3′R,4′S)-2′,3′-dihydroxy-4′-amino-cyclopentyl)-4-amino-5-bromo-pyrrolo[2,3-a]pyrimidine]
Adenosine kinase [1]
  IC50: 0.47 nM

## Nc1ncnc2c1ncn2[C@@H]1O[C@H](COP(=O)(O)O)[C@@H](O)[C@H]1O [AMP]
[2]
  rate of phosphate generation: 0.043 ± 0.005 µM/mg/min

## Nc1ncnc2c1ncn2[C@@H]1O[C@H](COP(=O)(O)CP(=O)(O)O)[C@@H](O)[C@H]1O [AOPCP]
[2]
  dephosphorylation of AMP (phosphate production): did not reduce dephosphorylation of AMP

## CCN(CC)c1ncnc2c1ncn2[C@@H]1O[C@H](COP(=O)(O)OP(=O)(O)C(Br)(Br)P(=O)(O)O)[C@@H](O)[C@H]1O [ARL67156]
Rat Parotid Ecto-ATPase
  IC50: 120000 nM
Ecto-ATPase [3]
  IC50: 4600 nM
Ecto-ATPase [4]
  Ki: 255 nM
P2 receptors
  effect on P2 receptors: lack of or only has weak effect

## Nc1ncnc2c1ncn2[C@@H]1O[C@H](COP(=O)(O)OP(=O)(O)OP(=O)(O)O)[C@@H](O)[C@H]1O [ATP]
[2]
  rate of phosphate generation: 0.428 ± 0.046 µM/mg/min

## OC[C@H]1O[C@@H](n2cnc3c(NC4CCCC4)nc(Cl)nc32)[C@H](O)[C@@H]1O [CCPA, 2-chloro-N(6)-cyclopentyladenosine]
[5]; 0.1 mM, 20 μl injected in the left (contralateral) Zusanli point
  mechanical and thermal hypersensitivity / pain threshold in right foot: no effect; also recorded: did not alter the pain threshold
[5]; A1R KO mice
  mechanical and thermal pain in mice with deletion of A1 receptors: no clinical benefit
[5]; WT mice, after 0.1 mM, 20 μl in right Zusanli point, before: 3.7±0.3
  paw withdrawal (thermal): 12.7 ± 1.5 s
[5]; WT mice, after 0.1 mM, 20 μl in right Zusanli point, before: 38.0±2.5
  touch sensitivity (percentage of negative responses of 10 Von Frey trials): 85.7±2.0%
[6]; WT mice, after injection in Zusanli point, before: 2.9±0.3
  withdrawal of foot (thermal): 16.2 ± 2.4 s
[6]; WT mice, after injection in Zusanli point, before: 25.0±2.2
  touch sensitivity (percentage of negative responses of 10 Von Frey trials): 83.3±4.9%
[6]; injected in the left (contralateral) Zusanli point
  mechanical and thermal hypersensitivity / pain threshold in right foot: no effect; also recorded: did not alter the pain threshold
[7]
  course of the pain-relieving effect: transient
[7]; injection in right Zusanli point
  sensitivity to painful stimulation in the contralateral (left) leg: did not alter sensitivity
[8]; A1R KO mice
  fEPSP response in mice with deletion of A1 receptors: failed to respond
[8]; WT, 0.1 mM 20 μl in right Zusanli point (ipsilateral), within 20 min, before ~0.65 mV
  fEPSP amplitude: ~0.22 mV
[8]; WT, ipsilateral injection, within 20 min
  fEPSP amplitude, % of baseline values: 26.6±11.0%
[8]; administered contralateral to the painful stimulation
  effect on fEPSP: no effect

## O=S(=O)(NCCNC/C=C/c1ccc(Br)cc1)c1cccc2cnccc12 [H-89]
[5]; injected in the Zusanli point
  CFA-induced mechanical pain hypersensitivity, contralateral paw: not the contralateral paw
  CFA-induced mechanical pain hypersensitivity, ipsilateral (right leg): transiently and significantly reduced; also recorded: reduced pain temporarily

## NC(=O)C1CN(CCCCC(c2ccc(F)cc2)c2ccc(F)cc2)CCN1CC(=O)Nc1c(Cl)cc(N)cc1Cl (centres unmarked) [R75231, 2-(aminocarbonyl)-N-(4-amino-2,6-dichlorophenyl)-4-[5,5-bis(4-fluorophenyl)pentyl]-1-piperazineacetamide]
Adenosine transport
  Ki: 0.1 nM

## Nc1ncnc2c1ncn2[C@@H]1O[C@H](CO)[C@@H](O)[C@H]1O [adenosine]
Adenosine kinase [9]
  Km: ~0.02 µM

## [O]=[Mo](=[O])([O-])[O-] [molybdate]
[2]
  dephosphorylation of AMP (phosphate production): partly suppressed dephosphorylation of AMP
